{"source": "patent US20060046972A1", "about": "“Cytotoxic nucleoside analog compound 003 for treating cancer” (Parker Hughes Institute, priority 2004, published 2006)", "key": {"[1]": {"tested_on": "centrosomes isolated from an EBV-transformed B-lymphoblastoid cell line", "experiment": "Centrosomal regrowth assay of aster formation from isolated centrosomes", "assay_type": "biochemical", "conditions": "100 μM", "description": "Centrosome isolation from an EBV-transformed B-lymphoblastoid cell line was performed following a slight modification of a literature procedure (See, for example, Moudjou and Bomens, 1994, Cell Biology: A Laboratory Handbook, p. 595. Academic Press, Inc, New York; and Cell Biology: A Laboratory Handbook, 1994).\nBriefly, cells were grown to a density of 1×10^6 per ml. A total of 1×10^9 cells were treated for 1 hour with […] and […]. All subsequent procedures were performed at 4° C. Firstly, cells were transferred into sterile conical 50 ml tubes and sedimented at 1,200×g for 5 minutes. Cells were then washed twice with 50 ml of filtered tris buffered saline (10 mM Tris-HCl, pH 7.4, 150 mM NaCl, TBS) by gentle resuspension with a pasteur pipette and sedimented at 1,200×g for 5 minutes. Cells were next washed with 8% sucrose in ten times diluted TBS and sedimented at 1,200×g for 5 minutes. Cells were lysed with 100 ml of 1 mM Hepes lysis buffer (0.5% Nonidet-P40), 0.5mM MgCl2, 0.1% β-Mercaptoethanol, 1 mM PMSF, 100 μg/ml aprotinin, 1 μg/ml leupeptin and 1 μg/ml pepstatin), pH 7.2. The swollen nuclei were sedimented at 1,200×g for 10 minutes and the supernatant was filtered through a 70 μm nylon cell strainer. After the addition of 1M Hepes (10 mM final) and 5 μl of 10 mg/ml DNase (1 μg/ml final), the lysate was incubated for 30 minutes at 4° C. […]"}, "[2]": {"tested_on": "BT20 breast cancer cell line", "experiment": "Intracellular metabolism of Compound 003 to ala-AZT-MP, BT20", "assay_type": "in vitro ADME, human", "conditions": "25 μM Compound 003", "text": "Intracellular metabolism of Compound 003 was studied in CEM T-lineage lymphoma cell line, BT20 breast cancer cell line, T98 glioblastoma cell line, and Nalm-6 B-lineage leukemia cell line. CEM and Nalm6 cells were maintained in RPMI supplemented with 10% fetal bovine serum, and 1% penicillin/streptomycin. BT20 and T98 cells w.ere cultured in a medium composed of MEM, 10% fetal bovine serum, 0.1-mM of nonessential amino acids and Earles salts, and 1% penicillin/streptomycin. CEM and Nalm6 cells at a density of 10^6 cells per ml were utilized in the drug metabolism study. BT20 and T98 cells were seeded in 6-cm petri-dishes at 4 million cells and 2 million cells per plate, respectively, the day before the experiment. Either one plate of adherent cells or 10 million non-adherent cells was utilized at each time point. Cells were incubated with various concentrations of the compounds up to 24 hrs at 37° C. After incubation, cells were washed 2 times with ice-cold PBS, and extracted by addition of 0.5-1 ml of 60% methanol. Cell lysates were kept at −20° C. overnight, after which lysates were centrifuged at 15000×g for 10 minutes to remove the cell debris. One hundred microliters of these lysates were injected directly to HPLC. For half-life study, cells at the same density as in drug metabolism study were treated with 100 μM Compound 003 for 2 hrs, after which cells were washed 2 times with ice-cold PBS, and resuspended in warm media until the time they were harvested. For uptake and efflux study, cells were seeded at 2 million cells in 2 ml of media. […] With efflux experiments, cells 1×10^6/mL (the same density as in the uptake study) were incubated with 100 μM Compound 003 for 1 hr, washed 2 times with ice-cold PBS, and resuspended with culture medium without drug, and the metabolite efflux from cells to the medium was measured after 6 hr of incubation. […]"}}, "data": [{"smiles": "COC(=O)C(C)NP(=O)(OCC1OC(n2cc(C)c(=O)[nH]c2=O)CC1N=[N+]=[N-])Oc1ccc(OC)cc1", "note": "(centres unmarked) [Compound 003, 3′-azidothymidine 5′-[p-methoxyphenylmethoxyalaninyl phosphate]]", "values": [{"measurement": "nucleation of microtubules and aster growth from isolated centrosomes", "setting": "[1]", "value": "inhibited the ability of the centrosomes to nucleate and sufficiently grow microtubule asters"}, {"measurement": "time to peak intracellular metabolite concentration", "setting": "[2]", "value": "within an hour"}]}]}
